# Measurements from US20150216867A1, “COMPOUNDS FOR USE IN GASTRIC COMPLICATION” (NOVARTIS AG, priority 2012, published 2015).
# Structures can show the parent of a compound that is named as a salt.
# Legend:
# [1] = tested on: cultured primary DRG cells; assay: Dorsal root ganglia stimulation with acid: low pH (6.1) induced CGRP release; assay type: cell-based; conditions: read-out: IC50, block of increased CGRP release
# Description: c) Dorsal Root Ganglia Stimulation with Acid—Blockade of the Effect with GPR4 Antagonist Low pH (6.1) induces a significant Calcitonin Gene-Related Peptide (CGPR) release in cultured primary DRG cells.
# human GPR4 [2] = biological target: T1, human GPR4 (Homo sapiens, UniProt P46093); assay: Cell-based assay for human GPR4 activity: pH-induced cAMP formation (HTRF) in HeLa cells; design: expressed in transfected cells; conditions: HeLa cells stably expressing human GPR4, pH-induced cAMP formation
# T1 sequence (P46093 whole entry): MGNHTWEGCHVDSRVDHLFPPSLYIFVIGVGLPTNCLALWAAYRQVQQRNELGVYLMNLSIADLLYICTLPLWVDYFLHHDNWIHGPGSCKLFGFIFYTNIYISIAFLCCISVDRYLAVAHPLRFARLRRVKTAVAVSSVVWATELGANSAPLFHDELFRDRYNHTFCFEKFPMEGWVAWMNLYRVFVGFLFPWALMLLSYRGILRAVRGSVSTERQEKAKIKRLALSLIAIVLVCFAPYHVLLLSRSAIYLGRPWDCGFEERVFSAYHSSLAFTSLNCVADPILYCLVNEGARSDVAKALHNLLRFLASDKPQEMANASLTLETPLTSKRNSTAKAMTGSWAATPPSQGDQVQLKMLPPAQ
# Method: HeLa cells stably expressing human GPR4 were established by transfecting the cells with a construct containing the human GPR4 coding sequence. The cells were grown in Dulbecco's Modified Eagle Medium (DMEM)/HAM's tissue culture medium F12 (HAM's F12) supplemented with 10% fetal calf serum (FCS), 100 u/ml penicillin, 100 μg/ml streptomycin and 400 μg/ml G418 and 10 mM Hepes pH 8.0. pH-induced formation of cAMP was determined using the homogeneous time resolved fluorescence (HTRF) technology as provided by CisBio Inc. The cells were seeded in 384-well plates and cultured for 24 hours at 37° C., 5% CO2 before performing the assay. Medium was removed and 10 μl buffer A (Hepes buffered saline (HBS), 10 mM Hepes, pH 8, 2 mM 3-Isobutyl-1-methylxanthin (IBMX)) was added. For compound testing, buffer A with 2× concentrated compounds was used. Cells were incubated for 15 min at room temperature. 10 μl buffer B (HBS, 30 mM Hepes, specific pH) was added to reach the appropriate final pH for stimulation (see below) and incubation was continued for 15 min at room temperature.
# HBS: 130 mM NaCl, 0.9 mM NaH2PO4, 5.4 mM KCl, 0.8 mM MgSO4, CaCl2 1.8 mM, 25 mM glucose, 10-30 mM Hepes. Adjustment of HBS buffers:
# Compounds were diluted from fresh stock solutions at 10 mM in DMSO to 2 mM and then used for serial dilutions in DMSO.
# human GPR4 [3] = biological target: T1, human GPR4; assay: Human GPR4 binding assay with additional human serum albumin (4% HSA); design: c-myc (N); expressed in transfected cells; conditions: binding assay with additional 4% human serum albumin
# Method: (§1) Cells were grown in T175 flasks to a density of about 1×10^6 cells/mL in growth medium. The cells were harvested by centrifugation (3000 rpm for 30 minutes at 4° C.) and the pellet resuspended in ice cold buffer A (20 mM HEPES pH 7.8, 10 mM EDTA, 100 mM NaCl, 1 tab/40 mL protease inhibitor complete). […] The homogenate was centrifuged at 18000 rpm for 50 min at 4° C. and the membrane protein pellet resuspended in cold buffer A using the Polytron (2×20 seconds). The protein concentration is determined using the Bio Rad Protein Assay and human IgG as standard. The volume of the membrane protein suspension is adjusted to a final concentration of about 2 mg protein/mL. The suspension is then once again homogenized (Polytron) on ice at 25000 rpm for 20 seconds before being aliquoted and stored at −80° C.
# Radio Ligand Binding Assay: Serial dilutions of compounds (stock in 10 mM DMSO) are prepared by first diluting the compounds in DMSO followed by a 1:50 dilution into assay buffer (10 mM HEPES, pH 8.0, 100 mM NaCl, 5 mM MgCl2, 1 mM CaCl2, 0.5% fatty acid-free BSA, 0.05% Tween-20). […] The desired amount of membranes (20 μg/well) is diluted with assay buffer. […] 100 μL of the membrane-suspension is added and the plate stirred for 60 minutes. […] Finally the plate is counted for 2 min/well in a TopCount NXT instrument (Packard Instruments). The data are analyzed using the GraphPad Prism™ software. […]
# human GPR4 [4] = biological target: T1, human GPR4; assay: Human GPR4 binding assay ([3H]4(example 39) radioligand, membranes of 300.19 cells); design: c-myc (N); expressed in transfected cells
# Method: as §1
# Radio Ligand Binding Assay: Serial dilutions of compounds (stock in 10 mM DMSO) are prepared by first diluting the compounds in DMSO followed by a 1:50 dilution into assay buffer (10 mM HEPES, pH 8.0, 100 mM NaCl, 5 mM MgCl2, 1 mM CaCl2, 0.5% fatty acid-free BSA, 0.05% Tween-20). […] The desired amount of membranes (20 μg/well) is diluted with assay buffer. […] 100 μL of the membrane-suspension is added and the plate stirred for 60 minutes. […] Finally the plate is counted for 2 min/well in a TopCount NXT instrument (Packard Instruments). The data are analyzed using the GraphPad Prism™ software.
# [5] = tested on: neutrophil recruitment into the BAL fluid; assay: Neutrophil infiltration into mouse BAL fluid, cigarette smoke exposure model; assay type: in vivo; conditions: WT mice, cigarette smoke 2 weeks, 90 mg/kg po
# Method: e) Effect of GPR4 Antagonist on Neurophil Infiltration into Mouse BAL Fluid
# The role of GPR4 on neutrophil recruitment was determined in the cigarette smoke exposure model. GPR4 WT (wild type) and KO (knockout) mice, and WT treated with the compounds of example No 41 and example No 40 (90 mg/kg po) were exposed to five cigarettes for 2 weeks. The mice were sacrificed 24 hours following last smoke exposure and bronchoalveolar lavage (BAL) was performed.
# The following table summarizes the results obtained by the GPR4-mediated inhibition of neutrophil recruitment into the BAL fluid: […]
smiles,measurement,setting,value
"CCc1nn2c(C)cc(C)nc2c1Cc1ccc(/C=C/CN2CCN(C[C@@H](O)CO)CC2)cc1 [Example 17, (R)-3-(4-{(E)-3-[4-(2-Ethyl-5,7-dimethyl-pyrazolo[1,5-a]pyrimidin-3-ylmethyl)-phenyl]-allyl}-piperazin-1-yl)-propane-1,2-diol dihydrochloride]",IC50,[1],120 nM
"CCc1nn2c(C)cc(C)nc2c1Cc1ccc(/C=C/C(=O)N2CCNCC2)cc1 [Example 18, (E)-3-[4-(2-Ethyl-5,7-dimethyl-pyrazolo[1,5-a]pyrimidin-3-ylmethyl)-phenyl]-1-piperazin-1-yl-propenone hydrochloride]",IC50,human GPR4 [2],43 nM
same,IC50,human GPR4 [3],67 nM
same,IC50,human GPR4 [4],81 nM
"CCc1nn2c(C)cc(C)nc2c1Cc1ccc(-c2nnc(C3CCNCC3)o2)cc1 [Example 35, 2-Ethyl-5,7-dimethyl-3-[4-(5-piperidin-4-yl-[1,3,4]oxadiazol-2-yl)-benzyl]-pyrazolo[1,5-a]pyrimidine]",IC50,[1],530 nM
"CCc1nc2c(C)cc(C)nc2n1Cc1ccc(/C=C/CN2CCN(C(C)C)CC2)cc1 [Example 40, 2-Ethyl-3-{4-[(E)-3-(4-isopropyl-piperazin-1-yl)-propenyl]-benzyl}-5,7-dimethyl-3H-imidazo[4,5-b]pyridine]",recruitment of neutrophils,[5],significantly reduced
"CCc1nc2c(C)cc(C)nc2n1Cc1ccc(/C=C/CN2CCC(N3CCCCC3)CC2)cc1 [Example 41, 1′-{(E)-3-[4-(2-Ethyl-5,7-dimethyl-imidazo[4,5-b]pyridin-3-ylmethyl)-phenyl]-allyl}-[1,4′]bipiperidinyl dihydrochloride]",recruitment of neutrophils,[5],significantly reduced
